Assay results as given in ChEMBL document CHEMBL1131825, “A 2-nitroimidazole carbamate prodrug of 5-amimo-1-(chloromethyl)-3-[(5,6,7-trimethoxyindol-2-yl)carbony l]-1,2-dihydro-3H--benz[E]indole (amino-seco-CBI-TMI) for use with ADEPT and GDEPT” (Bioorg Med Chem Lett, 1999).

What was measured:
SK-OV-3 [1] = assay: In vitro cytotoxic activity against SKOV3 cell line after 1 hour at 20% oxygen present in gas phase; assay type: functional, Homo sapiens
SK-OV-3 [2] = assay: In vitro cytotoxic activity against SKOV3 cell line after 1 hour at less than 0.01 % of oxygen in gas phase; assay type: functional, Homo sapiens
SK-OV-3 [3] = assay: In vitro cytotoxic activity against SKOV3 cell line after 4 hours at 20% oxygen present in gas phase; assay type: functional, Homo sapiens
SK-OV-3 [4] = assay: In vitro cytotoxic activity against SKOV3 cell line after 4 hours at less than 0.01 % of oxygen in gas phase; assay type: functional, Homo sapiens
SK-OV-3 [5] = assay: In vitro cytotoxicity against SKOV3 cell proliferation after 18 hr exposure in presence of 1 mM NADH; assay type: functional, cell-based; details: Homo sapiens, SK-OV-3, 18 h
SK-OV-3 [6] = assay: In vitro cytotoxicity against SKOV3 cell proliferation after 18 hr exposure in presence of 1 mM NADH + NTR; assay type: functional, cell-based; details: Homo sapiens, SK-OV-3, 18 h
SC-3 = assay: In vitro cytotoxicity against SC3.2 cell proliferation after 18 hr exposure; assay type: functional, cell-based, Homo sapiens; details: Mus musculus, SC-3, 18 h
SK-OV-3 [7] = assay: In vitro cytotoxicity against SKOV3 cell proliferation after 18 hr exposure in absence of reagent; assay type: functional, cell-based; details: Homo sapiens, SK-OV-3, 18 h

SMILES	C10 (SK-OV-3 [1]) [nM]	C10 (SK-OV-3 [2]) [nM]	C10 (SK-OV-3 [3]) [nM]	C10 (SK-OV-3 [4]) [nM]	IC50 (SK-OV-3 [5]) [nM]	IC50 (SK-OV-3 [6]) [nM]	IC50 (SC-3) [nM]	IC50 (SK-OV-3 [7]) [nM]
COc1cc2cc(C(=O)N3CC(CCl)c4c3cc(NC(=O)OCc3cnc([N+](=O)[O-])n3C)c3ccccc43)[nH]c2c(OC)c1OC (configuration not stated)	2100	135	600	15	57	8	3.5	75
COc1cc2cc(C(=O)N3CC(CCl)c4c3cc(N)c3ccccc43)[nH]c2c(OC)c1OC (configuration not stated)					0.96	1.14	2.17	1.1
